Reference: patent publication US20260226084A1, “DUAL RAF AND TUBULIN INHIBITORS AND METHODS OF USE THEREOF” (Deciphera Pharmaceuticals, LLC, priority 2023, published 2026)

Columns and labels:
[1] = biological target: T1, B-Raf kinase (SEQ ID NO: 1) (Homo sapiens, UniProt P15056); test: Biochemical Assay for B-Raf (coupled pyruvate kinase/lactate dehydrogenase assay); conditions: 1 mM ATP; read-out: BRAF (inhibition of biochemical activity, IC50)
T1 construct: GST (N); purchased Sigma

[2] = biological target: T2, C-Raf kinase (SEQ ID NO: 2) (Homo sapiens, UniProt P04049, Y340D/Y341D); test: Biochemical Assay for C-Raf (coupled pyruvate kinase/lactate dehydrogenase assay); conditions: 1 mM ATP; read-out: CRAF (inhibition of biochemical activity, IC50)
T2 construct: C-Raf residues 306-end; Y340D, Y341D with; GST (N); purchased Sigma

MiaPaca-2 cells = test: MiaPaca-2 Cell Proliferation Assay; assay type: cell-based; conditions: Homo sapiens, MIA PaCa-2, MiaPaca-2 cells; Table 2; read-out: Inhibition of cell proliferation in MiaPaca-2 (IC50 class)
Protocol: Miapaca-2 cells (catalog #CRL-1420) are obtained from the American Type Culture Collect (ATTC, Manassas, VA). Briefly, cells were grown in DMVEM supplemented with 10 characterized fetal bovine serum (Invitrogen, Carlsbad, CA), 2.5% New Zealand sourced horse serum and 1 Penicillin/Streptomycin/L-Glutamine at 37° C., 5 CO2, and 95% humidity. Cells are expanded until reaching 70-95% confluency at which point they are sub-cultured or harvested for assay use. A serial dilution of test compound is dispensed into a 96-well black clear bottom plate in triplicate. Three thousand cells are added per well in 200 μL complete growth medium in the 96-well plate. Plates are incubated for 67 to 72 h at 37° C., 5% CO2, and 95% humidity. At the end of the incubation, 40 μL of a 440 μM solution of resazurin (Sigma, St. Louis, MO) in PBS is added to each well of the plate and plates are incubated for an additional 5 to 6 h at 37° C., 5% CO2, and 95% humidity. Plates are read on a Synergy2 or equivalent reader (Biotek, Winooski VT) using an excitation of 540 nm and an emission of 600 nm. Data is analyzed using Prism software (Graphpad, San Diego, CA) to calculate IC50 values.

HCT-116 cells = test: HCT-116 Cell Proliferation Assay; assay type: cell-based; conditions: Homo sapiens, HCT-116, HCT-116 cells; Table 2; read-out: Inhibition of cell proliferation in HCT-116 (IC50 class)
Protocol: HCT-116 cells (catalog #CCL-247) are obtained from the American Type Culture Collect (ATCC, Manassas, VA). Briefly, cells are grown in McCoy's 5A supplemented with 10% characterized fetal bovine serum (Invitrogen, Carlsbad, CA) and 1% Penicillin/Streptomycin/L-Glutamine at 37° C., 5% CO2, and 95% humidity. Cells are expanded until reaching 70-95% confluency at which point they are subcultured or harvested for assay use. A serial dilution of test compound is dispensed into a 384-well black clear bottom plate in triplicate. 375 cells are added per well in 50 μL complete growth medium in the 384-well plate. Plates are incubated for 67 to 72 hours at 37° C., 5% CO2, and 95% humidity. At the end of the incubation, 40 μL of a […] solution of resazurin (Sigma, St. Louis, MO) in PBS is added to each well of the plate and plates are incubated for an additional 4 to 5 h at 37° C., 5% CO2, and 95% humidity. Plates are read on a Synergy2 or equivalent reader (Biotek, Winooski, VT) using an excitation of 540 nm and an emission of 600 nm. Data is analyzed using Prism software (Graphpad, San Diego, CA) to calculate IC50 values.

HPAF-II cells = test: HPAF-II Cell Proliferation Assay; assay type: cell-based; conditions: Homo sapiens, HPAF-II, HPAF-II cells; Table 2; read-out: Inhibition of cell proliferation in HPAF-II (IC50 class)
Protocol: (§1) HPAF-II cells (catalog #CRL-1997) are obtained from the American Type Culture Collect (ATCC, Manassas, VA). Briefly, cells are grown in Minimum Essential Media supplemented with 10% characterized fetal bovine serum (Invitrogen, Carlsbad, CA) and 1% Penicillin/Streptomycin/L-Glutamine at 37° C., 5% CO2, and 95% humidity. Cells are expanded until reaching 70-95% confluency at which point they are sub-cultured or harvested for assay use. A serial dilution of test compound is dispensed into a 384-well black clear bottom plate in triplicate. 750 cells are added per well in 50 μL complete growth medium in the 384-well plate. Plates are incubated for 115 to 120 hours at 37° C., 5% CO2, and 95% humidity. At the end of the incubation, 40 μL of a 440 μM solution of resazurin (Sigma, St. Louis, MO) in PBS is added to each well of the plate and plates are incubated for an additional 18 to 24 hours at 37° C., 5% CO2, and 95% humidity. Plates are read on a Synergy2 or equivalent reader (Biotek, Winooski, VT) using an excitation of 540 nm and an emission of 600 nm. Data is analyzed using Prism software (Graphpad, San Diego, CA) to calculate IC50 values.

Pa16c cells = test: Pa16c Cell Proliferation Assay; assay type: cell-based; conditions: Table 2, read-out: Inhibition of cell proliferation in Pa16c (IC50 class)
Protocol: as §1, with “Pa16c” for “HPAF-II”, “cells” for “cells (catalog #CRL-1997)”, “Dr. Channing Der, University of North Carolina at Chapel Hill.” for “the American Type Culture Collect (ATCC, Manassas, VA).”, “Dulbecco's Modified Eagle Medium” for “Minimum Essential Media”, “67” for “115”, “72 h” for “120 hours”

T2 sequence (P04049 307-648 Y340D/Y341D): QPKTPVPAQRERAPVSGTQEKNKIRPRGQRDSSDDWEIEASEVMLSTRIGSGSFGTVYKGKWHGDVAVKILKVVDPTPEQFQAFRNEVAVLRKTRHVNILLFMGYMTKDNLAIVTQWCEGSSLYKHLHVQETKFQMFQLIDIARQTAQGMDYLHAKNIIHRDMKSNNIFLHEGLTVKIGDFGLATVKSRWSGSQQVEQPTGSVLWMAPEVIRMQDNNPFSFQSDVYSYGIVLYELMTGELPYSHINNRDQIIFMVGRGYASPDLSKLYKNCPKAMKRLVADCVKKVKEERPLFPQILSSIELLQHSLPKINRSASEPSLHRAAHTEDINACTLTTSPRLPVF
T1 sequence (P15056 416-766): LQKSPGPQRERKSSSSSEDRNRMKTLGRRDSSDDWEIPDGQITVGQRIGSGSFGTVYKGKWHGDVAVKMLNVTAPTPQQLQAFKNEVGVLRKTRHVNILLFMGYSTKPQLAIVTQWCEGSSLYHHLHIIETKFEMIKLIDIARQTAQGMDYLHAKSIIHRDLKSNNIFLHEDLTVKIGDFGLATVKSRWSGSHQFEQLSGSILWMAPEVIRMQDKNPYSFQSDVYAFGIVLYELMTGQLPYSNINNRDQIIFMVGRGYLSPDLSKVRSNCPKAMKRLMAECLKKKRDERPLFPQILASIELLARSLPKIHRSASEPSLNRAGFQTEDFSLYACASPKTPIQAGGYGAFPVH

Row | SMILES | IC50 [1] [µM] | IC50 [2] [µM] | IC50 (MiaPaca-2 cells) [µM] | IC50 (HCT-116 cells) [µM] | IC50 (HPAF-II cells) [µM] | IC50 (Pa16c cells) [µM]
1 | CC(=O)Nc1cc(-c2nccc(-c3cc(NC(=O)c4ccc(C(F)F)nc4)ccc3C)n2)ccn1 [Example 14] | 0.1 to 0.5 | < 0.1 | 0.1 to 0.5 |  |  | 
2 | Cc1ccc(NC(=O)c2cncc(C(C)(C)C#N)c2)cc1-c1ccnc(-c2ccnc(NC(=O)C3CC3)c2)c1 [Example 105] | < 0.1 | < 0.1 | 0.1 to 0.5 | < 0.1 | 0.1 to 0.5 | 1 to 10
3 | Cc1ccc(NC(=O)c2cc(C3CC3)cnn2)cc1-c1ccnc(-c2cnsc2)c1 [Example 136] | 0.1 to 0.5 | < 0.1 | 0.1 to 0.5 | 0.1 to 0.5 | 0.1 to 0.5 | 0.1 to 0.5
4 | Cc1ccc(NC(=O)c2cc(C(C)(F)F)cnn2)cc1-c1ccnc(-c2ccoc2)c1 [Example 149] | 0.1 to 0.5 | 0.1 to 0.5 | 0.1 to 0.5 | 0.1 to 0.5 | 0.1 to 0.5 | 0.1 to 0.5
5 | Cc1ccc(NC(=O)c2cc(C(F)(F)F)cnn2)cc1-c1ccnc(-c2ccnc(NC(=O)C3CCC3)c2)c1 [Example 8] | < 0.1 | < 0.1 | 0.1 to 0.5 | 0.1 to 0.5 | < 0.1 | < 0.1
6 | CNc1cc(-c2cc(NC(=O)c3cc(C(F)(F)F)cnn3)ccc2C)cc(-c2ccnc(NC(=O)C3CC3)c2)n1 [Example 118] | < 0.1 | < 0.1 | < 0.1 | < 0.1 | < 0.1 | < 0.1
7 | COC(=O)Nc1cc(-c2cncc(-c3cc(NC(=O)c4ccc(C(F)(F)F)nc4)c(F)cc3C)c2)ccn1 [Example 3, methyl (5-(4-fluoro-2-methyl-5-(6-(trifluoromethyl)nicotinamido)phenyl)-[3,4′-bipyridin]-2′-yl)carbamate] | 0.1 to 0.5 | < 0.1 | < 0.1 | < 0.1 |  | 
8 | Cc1ccc(NC(=O)c2cc(C(F)(F)F)cnn2)cc1-c1ccnc(-c2ccnc(NC(=O)C3CN(C)CC3(F)F)c2)c1 (centres unmarked) [Example 94, N-(3-(2′-(4,4-difluoro-1-methylpyrrolidine-3-carboxamido)-[2,4′-bipyridin]-4-yl)-4-methylphenyl)-5-(trifluoromethyl)pyridazine-3-carboxamide] | 0.1 to 0.5 | < 0.1 | 0.5 to 1 | 0.1 to 0.5 | 1 to 10 | 1 to 10
9 | CC(=O)Nc1cc(-c2cccc(-c3cc(NC(=O)c4ccc(C(F)F)nc4)ccc3C)n2)ccn1 [Example 85] | 0.1 to 0.5 | < 0.1 | 0.5 to 1 |  |  | 
10 | CC(=O)Nc1cc(-c2cc(-c3cc(NC(=O)c4ccc(C(F)(F)F)nc4)ccc3C)cn(C)c2=O)ccn1 [Example 28] | 0.1 to 0.5 | < 0.1 | 1 to 10 |  |  | 
11 | COC(=O)Nc1cc(-c2cccc(-c3cc(NC(=O)c4ccc(C(F)(F)F)nc4)cnc3C)c2)ncn1 [Example 33] | 0.5 to 1 | < 0.1 | 1 to 10 |  |  | 
12 | Cc1ccc(NC(=O)c2cc(C(F)(F)F)cnn2)cc1-c1ccnc(-c2cnsc2)c1 [Example 132] |  |  | 0.1 to 0.5 | 0.1 to 0.5 | 0.1 to 0.5 | 0.1 to 0.5
